Like-named read-outs stand apart in the source and are kept apart here.
Test system: test plant species
Test: Post-emergent herbicidal activity test (greenhouse, foliar spray, visual growth reduction)
Type: in vivo
Details: post-emergence, 336 h, 140 g ai/ha
Method in brief: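 Visual scoring 14 d after treatment (0 = no injury, 100 = complete control) against nontreated and solvent-blank plants gave percent growth reduction. Foliar application used a track sprayer delivering 187 L/ha to seedlings at first or second true leaf stage, grown at 23–29 °C day, ~15 h photoperiod.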

[1] = ALOMY: blackgrass (Alopecurus myosuroides), 14 days after application, read-out: Visual Growth Reduction (%) 14 Days After Application, ALOMY
[2] = AMARE: redroot pigweed (Amaranthus retroflexus), 14 days after application, read-out: Visual Growth Reduction (%) 14 Days After Application, AMARE
[3] = AVEFA: wild oat (Avena fatua), 14 days after application, read-out: Visual Growth Reduction (%) 14 Days After Application, AVEFA
[4] = CHEAL: lambsquarters (Chenopodium album), 14 days after application, read-out: Visual Growth Reduction (%) 14 Days After Application, CHEAL
[5] = CIRAR: canada thistle (Cirsium arvense), 14 days after application, read-out: Visual Growth Reduction (%) 14 Days After Application, CIRAR
[6] = CYPES: yellow nutsedge (Cyperus esculentus), 14 days after application, read-out: Visual Growth Reduction (%) 14 Days After Application, CYPES
[7] = DIGSA: crabgrass (Digitaria sanguinalis), 14 days after application, read-out: Visual Growth Reduction (%) 14 Days After Application, DIGSA
[8] = ECHCG: barnyardgrass (Echinochloa crus-galli), 14 days after application, read-out: Visual Growth Reduction (%) 14 Days After Application, ECHCG
[9] = IPOHE: ivy-leaf morning glory (Ipomoea hederacea), 14 days after application, read-out: Visual Growth Reduction (%) 14 Days After Application, IPOHE
[10] = KCHSC: kochia (Bassia scoparia), 14 days after application, read-out: Visual Growth Reduction (%) 14 Days After Application, KCHSC
[11] = ORYSA: rice (Oryza sativa), 14 days after application, read-out: Visual Growth Reduction (%) 14 Days After Application, ORYSA
[12] = SETFA: giant foxtail (Setaria faberi), 14 days after application, read-out: Visual Growth Reduction (%) 14 Days After Application, SETFA
[13] = SORVU: grain sorghum (Sorghum vulgare), 14 days after application, read-out: Visual Growth Reduction (%) 14 Days After Application, SORVU
[14] = STEME: common chickweed (Stellaria media), 14 days after application, read-out: Visual Growth Reduction (%) 14 Days After Application, STEME
[15] = TRZAS: wheat, spring (Triticum aestivum), 14 days after application, read-out: Visual Growth Reduction (%) 14 Days After Application, TRZAS
[16] = blackgrass (Alopecurus myosuroides), 14 Days After Application, read-out: Visual Growth Reduction (%) ALOMY
[17] = canada thistle (Cirsium arvense), 14 Days After Application, read-out: Visual Growth Reduction (%) CIRAR
[18] = crabgrass (Digitaria sanguinalis), 14 Days After Application, read-out: Visual Growth Reduction (%) DIGSA
[19] = lambsquarters (Chenopodium album), 14 Days After Application, read-out: Visual Growth Reduction (%) CHEAL
[20] = redroot pigweed (Amaranthus retroflexus), 14 Days After Application, read-out: Visual Growth Reduction (%) AMARE
[21] = wild oat (Avena fatua), 14 Days After Application, read-out: Visual Growth Reduction (%) AVEFA
[22] = yellow nutsedge (Cyperus esculentus), 14 Days After Application, read-out: Visual Growth Reduction (%) CYPES

Compound	pest or weed control at 140 g/ha [1] [%]	pest or weed control at 140 g/ha [2] [%]	pest or weed control at 140 g/ha [3] [%]	pest or weed control at 140 g/ha [4] [%]	pest or weed control at 140 g/ha [5] [%]	pest or weed control at 140 g/ha [6] [%]	pest or weed control at 140 g/ha [7] [%]	pest or weed control at 140 g/ha [8] [%]	pest or weed control at 140 g/ha [9] [%]	pest or weed control at 140 g/ha [10] [%]	pest or weed control at 140 g/ha [11] [%]	pest or weed control at 140 g/ha [12] [%]	pest or weed control at 140 g/ha [13] [%]	pest or weed control at 140 g/ha [14] [%]	pest or weed control at 140 g/ha [15] [%]	other results
O=C(O)c1nc(-c2cc(Br)c(C(F)(F)F)cc2Cl)c(F)cc1Cl [F181, 6-(5-Bromo-2-chloro-4-(trifluoromethyl)phenyl)-3-chloro-5-fluoropicolinic acid]	30 to 44	95 to 100	30 to 44	95 to 100	75 to 84	45 to 59	95 to 100	60 to 74	95 to 100	60 to 74	0 to 29	30 to 44	95 to 100	0 to 29	45 to 59	–
COC(=O)c1nc(-c2cc3c(cc2Cl)OCO3)c(F)cc1Cl [F150, Methyl 3-chloro-6-(6-chlorobenzo[d] [1,3]oxol-5-yl)-5-fluoropicolinate]	0 to 29	75 to 84	0 to 29	75 to 84	85 to 94	0 to 29	0 to 29	0 to 29	85 to 94	45 to 59	0 to 29	30 to 44	0 to 29	0 to 29	0 to 29	–
COC(=O)c1nc(-c2cc(C)c(C(F)(F)F)cc2F)ccc1Cl [F361, Methyl 3-chloro-6-(2-fluoro-5-methyl-4-(trifluoromethyl)phenyl)picolinate]	–	–	–	–	–	–	–	0 to 29	75 to 84	0 to 29	0 to 29	0 to 29	0 to 29	0 to 29	0 to 29	pest or weed control at 140 g/ha [16]: 0 to 29%; pest or weed control at 140 g/ha [17]: 0 to 29%; pest or weed control at 140 g/ha [18]: 0 to 29%; pest or weed control at 140 g/ha [19]: 85 to 94%; pest or weed control at 140 g/ha [20]: 45 to 59%; pest or weed control at 140 g/ha [21]: 0 to 29%; pest or weed control at 140 g/ha [22]: 0 to 29%
O=C(O)c1nc(-c2ccc(C(F)(F)F)nc2Cl)ccc1Cl [F192, 2′,5-Dichloro-6′-(trifluoromethyl)-[2,3′-bipyridine]-6-carboxylic acid]	0 to 29	85 to 94	0 to 29	95 to 100	75 to 84	0 to 29	85 to 94	75 to 84	95 to 100	60 to 74	0 to 29	75 to 84	85 to 94	0 to 29	0 to 29	–
COC(=O)c1nc(-c2ccc(C#N)cc2Cl)ccc1Cl [F59, methyl 3-chloro-6-(2-chloro-4-cyanophenyl)picolinate]	0 to 29	85 to 94	0 to 29	60 to 74	30 to 44	0 to 29	60 to 74	45 to 59	95 to 100	45 to 59	0 to 29	45 to 59	75 to 84	0 to 29	0 to 29	–
CO/N=C/c1ccc(-c2ccc(Cl)c(C(=O)OC)n2)c(Cl)c1 [F21, methyl 3-chloro-6-(2-chloro-4-((methoxyimino)methyl)phenyl)picolinate]	0 to 29	0 to 29	0 to 29	0 to 29	0 to 29	0 to 29	0 to 29	–	–	–	–	–	–	–	–	pest or weed control at 140 g/ha (barnyardgrass (Echinochloa crus-galli), 14 Days After Application, read-out: Visual Growth Reduction (%) ECHCG): 0 to 29%; pest or weed control at 140 g/ha (common chickweed (Stellaria media), 14 Days After Application, read-out: Visual Growth Reduction (%) STEME): 0 to 29%; pest or weed control at 140 g/ha (giant foxtail (Setaria faberi), 14 Days After Application, read-out: Visual Growth Reduction (%) SETFA): 0 to 29%; pest or weed control at 140 g/ha (ivy-leaf morning glory (Ipomoea hederacea), 14 Days After Application, read-out: Visual Growth Reduction (%) IPOHE): 0 to 29%; pest or weed control at 140 g/ha (johnsongrass (Sorghum vulgare), 14 Days After Application, read-out: Visual Growth Reduction (%) SORVU): 0 to 29%; pest or weed control at 140 g/ha (kochia (Bassia scoparia), 14 Days After Application, read-out: Visual Growth Reduction (%) KCHSC): 0 to 29%; pest or weed control at 140 g/ha (rice (Oryza sativa), 14 Days After Application, read-out: Visual Growth Reduction (%) ORYSA): 0 to 29%; pest or weed control at 140 g/ha (wheat, spring (Triticum aestivum), 14 Days After Application, read-out: Visual Growth Reduction (%) TRZAS): 0 to 29%
COC(=O)c1nc(-c2ccc(C(F)F)cc2)ncc1Cl [F319, Methyl 5-chloro-2-(4-(difluoromethyl)phenyl)pyrimidine-4-carboxylate]	–	–	–	–	–	–	–	0 to 29	30 to 44	0 to 29	0 to 29	0 to 29	0 to 29	0 to 29	0 to 29	pest or weed control at 140 g/ha [16]: 0 to 29%; pest or weed control at 140 g/ha [17]: 0 to 29%; pest or weed control at 140 g/ha [18]: 0 to 29%; pest or weed control at 140 g/ha [19]: 30 to 44%; pest or weed control at 140 g/ha [20]: 0 to 29%; pest or weed control at 140 g/ha [21]: 0 to 29%; pest or weed control at 140 g/ha [22]: 0 to 29%
COC(=O)c1nc(-c2ccc(C(F)(F)F)cc2Cl)c(O)cc1Cl [F34, methyl 3-chloro-6-(2-chloro-4-(trifluoromethyl)phenyl)-5-hydroxypicolinate]	0 to 29	0 to 29	0 to 29	45 to 59	0 to 29	0 to 29	0 to 29	0 to 29	0 to 29	0 to 29	0 to 29	0 to 29	0 to 29	0 to 29	0 to 29	–
